Data reported in PubChem BioAssay AID1996.
In brackets after ≈: the same amount, converted by molar mass.

Conditions: buffer; pH 7.4; 200.0 µM

SMILES	solubility kinetic [µg/mL]
COc1ccc(NC(=O)C2COc3ccccc3O2)cc1 (stereo not given)	> 42.8
O=C1/C(=C/c2ccncc2)N=C2CCCCCN12	33.9 (≈ 140 µM)
c1cn(CCCNC2CCCCCCC2)cn1	23.9 (≈ 102 µM)
Nc1nc2ncc(C(=O)c3cc(F)ccc3O)cc2s1	7 (≈ 24.2 µM)
Cc1ccc(NC(=O)COC(=O)C2CC2)cc1S(=O)(=O)N1CCOCC1	> 57.4
Cc1cccc(CC(=O)N2CCOCC2)c1	> 32.9
Clc1ccc(-c2nc(N3CCOCC3)nc3ccccc23)cc1	< 0.2
CC1CN(S(=O)(=O)c2ccc(C(=O)NC3CCCCC3)cc2)CC(C)O1 (stereo not given)	45.8 (≈ 120 µM)
CCc1c(C(=O)NC(C)C2CCCO2)csc1C (stereo not given)	35.9 (≈ 134 µM)
COc1ccc(CNC(=O)c2cc(=O)c3cc(C)ccc3o2)cc1	< 0.7
Cc1cccc(NC(=O)CN2CCOCC2)c1C	> 37.2
O=C(c1ccccc1)C1CCN(C(=O)c2c(F)cccc2F)CC1	> 49.4
CC(=O)Nc1c(C(=O)Nc2ccc3c(c2)OCO3)oc2ccccc12	3.2 (≈ 9.46 µM)
NC(=O)c1ccccc1N1CCCCC1	> 30.6
CC(C)CCN(C(=S)Nc1cccc(F)c1)C1CCN(C(C)C)CC1	48.2 (≈ 132 µM)
Cc1ccc(C(=O)NC(=S)N2CCCC2)cc1	> 37.3
O=C(NCc1csc(-c2cccs2)n1)c1ccsc1	45.9 (≈ 150 µM)
Fc1ccc(C2Nc3cccc4cccc(c34)N2)cc1	3.2 (≈ 12.1 µM)
Cc1nc(SCC(=O)Nc2ccc3[nH]c(=O)[nH]c3c2)nc(C)c1C	15 (≈ 43.7 µM)
COc1ccc(N2CCN(C(=O)COCC(=O)O)CC2)cc1	> 46.3
Cc1onc(-c2c(Cl)cccc2Cl)c1C(O)c1ccc(F)cc1 (stereo not given)	42.1 (≈ 120 µM)
COc1ccc(-c2nc3n(c(=O)c2C#N)CCS3)c(OC)c1	> 47.3
COc1ccc(NC(=O)C2CCCO2)c(OC)c1 (stereo not given)	33.9 (≈ 135 µM)
O=C(Nc1ccncc1)c1cccc2ccccc12	> 37.2
COc1ccc(S(=O)(=O)N2CCN(CC(=O)NC(Cc3ccccc3)C(C)=O)CC2)cc1 (stereo not given)	> 68.9
CC1CCN(C(=O)CNC(=O)Cc2ccccc2)CC1	40.9 (≈ 149 µM)

SMILES	solubility kinetic [µg/mL]
COc1ccc(C(=O)CCNc2ccc(F)cc2)cc1	< 0.6
O=C(CCNC(=O)c1ccco1)Nc1ccc(F)c(Cl)c1	17.1 (≈ 55 µM)
Cc1ccc(OCc2ccc(Br)cc2)c([N+](=O)[O-])n1	2.2 (≈ 6.81 µM)
Cc1ccc(NC(=O)C2CC3CCC2C3)c(Br)c1 (stereo not given)	1.9 (≈ 6.16 µM)
O=C(Nc1ccccc1)C1CCCN1C(=O)NCc1ccccc1 (stereo not given)	22 (≈ 68 µM)
COc1ccc2nc(C)cc(N3CCC(C(N)=O)CC3)c2c1	42.3 (≈ 141 µM)
O=C(NCc1ccncc1)c1cc(C(=O)C2CC2)c[nH]1	36.2 (≈ 134 µM)
CN1CCC(NC(=O)c2cccc(Oc3ccccc3)c2)CC1	> 46.6
O=C(NCC(c1ccco1)N1CCCCC1)c1cccs1 (stereo not given)	> 45.7
O=C(Nc1cccc2c1CCCC2)c1ccccc1F	2.5 (≈ 9.28 µM)
N#C/C(=C\c1ccccc1)C(=O)Nc1cccnc1	18.3 (≈ 73.4 µM)
CC(=O)c1cccc(NC(=O)NC2CCCCCCC2)c1	2.5 (≈ 8.67 µM)
CN(C)c1ccc(NC(=O)c2ccc(N3CCOCC3)nc2)cc1	20.4 (≈ 62.5 µM)
COc1cc2ccccc2cc1C(=O)N1CC(C)OC(C)C1 (stereo not given)	> 44.9
COc1cccc(CN(C)Cc2nc(C3CC3)no2)c1	> 41
COc1ccc(C(=O)NC(=S)NCc2ccco2)cc1	4.6 (≈ 15.8 µM)
O=C(c1ccc([N+](=O)[O-])cc1)N1CCN(c2cccc3[nH]ccc23)CC1	50.7 (≈ 145 µM)
CC(=O)N1CCc2cc(S(=O)(=O)NC3CCCCC3)ccc21	6.4 (≈ 19.8 µM)
C=CC[C@H]1CC(C)=C[C@H](CC=C)[NH2+]1.[Cl-]	> 32.1
COc1ccccc1CC(=O)NC12CC3CC(CC(C3)C1)C2	7.8 (≈ 26.1 µM)
O=C(Nc1ccc(F)cc1)c1ccc(S(=O)(=O)N2CCCC2)cc1	4.4 (≈ 12.6 µM)
COc1ccc(-c2nc(=S)n3ccsc3n2)cc1OC	4.4 (≈ 14.4 µM)
CCOc1ccc(NC(=O)CCN2CCN(C)CC2)cc1	> 43.7
CCN(CC)c1ccc(NC(=O)c2cc3c(OC)cccc3[nH]2)cc1	0.5 (≈ 1.48 µM)
N#Cc1c(N2CCSCC2)nsc1-c1ccccc1Cl	3.4 (≈ 10.6 µM)
COc1ccc(N2CCN(C(=O)NC(=O)c3ccccc3)CC2)cc1	38.7 (≈ 114 µM)

SMILES	solubility kinetic [µg/mL]
N/C(=N\c1nc2ccccc2o1)NC(=O)c1ccc([N+](=O)[O-])cc1	< 0.1
CCO.C[C@H]1c2cccc(O)c2C(O)=C2C(=O)[C@]3(O)C(O)=C(C(N)=O)C(=O)[C@@H](N(C)C)[C@@H]3[C@@H](O)[C@@H]21.Cl.O	> 76.9
Cc1ccc(S(=O)(=O)Nc2ccc3c(c2)OCCO3)cc1	42.3 (≈ 139 µM)
Cc1cc(C)c2ccc3c(C)c(C)n(C)c3c2n1	< 0.3
Cc1ccc(CNC(=O)CN2C(C)CCCC2C)cc1 (stereo not given)	28.9 (≈ 105 µM)
CC(O)Cn1c(N2CCCC2)nc2c1c(=O)[nH]c(=O)n2C (stereo not given)	41.4 (≈ 141 µM)
CCOC(=O)c1[nH]c(C)c(C(=O)/C=C/c2ccc(C(=O)O)cc2)c1C	> 51.2
O=S(=O)(Nc1nccs1)c1ccc(F)cc1	> 38.7
CCN(CC(=O)Nc1ccc2c(c1)OCCO2)CC(=O)Nc1ccccc1C(F)(F)F.O=C(O)C(=O)O	47.7
CS(=O)(=O)N1CCC(C(=O)NCc2ccc(F)cc2)CC1	> 47.2
COC(=O)c1c(-c2c(Cl)cccc2Cl)noc1NC(=O)N(C)C	49.3 (≈ 138 µM)
Cc1ccc2c(CN3CC(C)CC(C)C3)cc(=O)oc2c1C (stereo not given)	3.3 (≈ 11 µM)
O=C(NC(=S)Nc1ccccn1)c1cccc([N+](=O)[O-])c1	6.2 (≈ 20.5 µM)
Cc1cc(C)c(C(=O)COC(=O)c2c(C)noc2C)cc1C	7.1 (≈ 23.6 µM)
COCCNC(=O)/C(C#N)=C/c1ccc(O)cc1	> 36.9
COc1ccccc1/C=C(\C#N)C(=O)c1cccn1C	9.7 (≈ 36.4 µM)
O=Cc1ccc(C(=O)OCC(=O)Nc2ccc(F)cc2F)cc1	3.7 (≈ 11.6 µM)
O=C(CSc1ccc(F)cc1)N1CCOCC1	> 38.3
Cc1ccc(-c2nc(Nc3ccc(O)cc3)c3ccccc3n2)cc1	0.9 (≈ 2.75 µM)
CCN1C/C(=N\S(=O)(=O)/N=C2\CN(CC)C(=O)N2CC)N(CC)C1=O	> 55.9
O=[N+]([O-])c1ccc2nonc2c1Nc1cccc(F)c1	1 (≈ 3.65 µM)
Cc1cccc(-c2nc(N)nc(N)n2)c1	28 (≈ 139 µM)
Cl.Nc1cc(Cl)ccc1N1CCCCCC1	12.4
CC(=O)N1CCN(C(=O)c2ccc(Cl)c(S(=O)(=O)N3CCCC3)c2)CC1	> 60

Other lines, results leading:

solubility kinetic [µg/mL]	SMILES
8.1 (≈ 26.6 µM)	Cc1cc(C)nc(NC(=S)NC(=O)c2ccccc2F)n1
0.4 (≈ 1.23 µM)	O=C1/C(=C/c2ccccn2)SC(=S)N1CCc1ccccc1
1 (≈ 3.2 µM)	CC(=O)c1cccc(NC(=S)NC(=O)c2ccccc2C)c1
2 (≈ 6.07 µM)	CC1(C)CC(=O)c2cc(NC(=O)c3ccc(F)cc3)c(=O)oc2C1
1 (≈ 3.98 µM)	Cc1cc(C)c(C#N)c(Nc2cccc(C)c2C)n1
17.4 (≈ 60.6 µM)	O=C(CN1C(=O)c2ccccc2C1=O)Nc1nccs1
2.5 (≈ 9.25 µM)	Cc1cccc(-n2cnc3sc(C)c(C)c3c2=O)c1
> 46.4	CCC(COC(C)=O)Nc1nc2c([nH]1)c(=O)n(C)c(=O)n2C (stereo not given)
44.2 (≈ 148 µM)	Cc1[nH]c(=O)c(S(=O)(=O)c2ccccc2)c(C)c1Cl
> 36.9	Cn1ncc([N+](=O)[O-])c1C(=O)Nc1ccccc1
3.1 (≈ 9.86 µM)	NC(=O)c1ccccc1NC(=O)COc1ccc2c(c1)OCO2
0.6 (≈ 1.95 µM)	O=C(CSc1nc2ccccc2[nH]1)c1c[nH]c2ccccc12
< 0.3	CCOC(=O)c1cc(C#N)c(Nc2ccccc2OC)nc1C(F)(F)F
> 40.3	Cc1ccccc1NC(=O)CCN1CCCC1.Cl
45.3 (≈ 140 µM)	CC(=O)Nc1ccc(SCc2ncc(-c3ccccc3)o2)cc1
> 40.4	Cc1ccc(C(=O)O/N=C(\N)c2ccccn2)c(C)c1
38.1 (≈ 127 µM)	Cc1ccc(OCC(=O)O/N=C(\N)c2ccccn2)cc1C
10.5 (≈ 26.5 µM)	CC1(C)Cc2c(c(-c3ccccc3)nc3sc4c(=O)[nH]c(=S)[nH]c4c23)CO1
> 47.1	Cc1nn(CC(=O)NCc2cccc(F)c2)c(=O)c2cccn12
> 43.1	COc1ccc(C(=O)NCc2ccccn2)cc1[N+](=O)[O-]
< 0.2	Cn1c2ccccc2c2cc([N+](=O)[O-])ccc21
> 39.2	CC(C)(C)c1ccccc1NC(=O)C1=COCCO1

solubility kinetic [µg/mL]	SMILES
52.7 (≈ 144 µM)	Cc1ccccc1OCCC(=O)Nc1ccccc1C(=O)N1CCCCC1
> 51.5	COc1ccc(CCn2c(C)c(C(C)=O)c(C(C)=O)c2C)cc1OC
43.6 (≈ 142 µM)	CC(=O)N(Cc1cc(=O)[nH]c2ccccc12)c1ccccc1C
> 52.6	CCN(C(=O)Cc1c(C(=O)O)n(C)c2ccccc12)c1cccc(C)c1
> 53.5	CCC(=O)NCCc1nc2cc(NC(=O)c3cccs3)ccc2n1C
> 45.9	COc1ccc(OCCNC(=O)c2ccccc2Cl)cc1
> 47.4	COc1ccccc1C(=O)OCc1cc(=O)n2ccsc2n1
2.1 (≈ 6.75 µM)	CCOC(=O)c1cnc(Nc2ccccc2)nc1C(F)(F)F
> 35.7	CCn1c(OC)nc2c1c(=O)n(C)c(=O)n2C
< 0.7	CCOC(=O)c1cc2ccccc2n1CC(=O)c1ccccc1
> 42.6	CCCn1c(=O)c2[nH]cnc2n(-c2ccccc2C)c1=O
0.4 (≈ 1.26 µM)	Cc1cc(C)c2c(N)c(C(=O)c3ccccc3Cl)sc2n1
38.6 (≈ 97.5 µM)	CC(=O)NCc1ccc(C(=O)COC(=O)COc2ccc(Cl)c(C)c2)s1
40.2 (≈ 146 µM)	C=CCn1cc(C(=O)OCC)c(=O)c2ccc(F)cc21
3.7 (≈ 10.9 µM)	Cc1c(C(=O)c2ccccc2)c2ccccn2c1CCc1ccccn1
> 28.1	Nc1cc(-c2ccncc2)c[nH]c1=O
< 0.2	Cc1cc(N2CCC(C)CC2)nc(-c2ccccc2O)n1
35 (≈ 117 µM)	COc1ccc(NC(=O)Cn2c(=O)oc3ccccc32)cc1
> 38.6	Cl.Nc1ccc(Cc2ccccn2)cc1
0.3 (≈ 0.941 µM)	COCc1cc(C)nc(SCc2ccccc2Cl)c1C#N
> 41.3	CC1(CCCN2C(=O)c3ccccc3C2=O)OCCO1
> 41.1	COc1ccccc1NC(=O)Nc1c(C)nn(C)c1C
